{"source": "patent US12404332B2", "about": "“Methods for diagnosing and treating cancers” (Research Development Foundation, priority 2020, dated 2025)", "key": {"PD-L1": {"tested_on": "PD-L1", "test": "Tumor cell PD-L1 depletion by drugs (flow cytometry, immunoblot)", "format": "cell-based, human and mouse", "conditions": "summary statement", "experimental": "High throughput Screening: B16 PD-L1 RFP cells were treated with 2.5 and 10 μM compounds from the Prestwick and LOPAC Libraries for 48 hours using the Agilent Bravo liquid pipetting platform. Then, cells were washed with PBS, and fixed with 4% paraformaldehyde (Electron Microscopy Sciences, Hatsfield, PA, Cat 15714S) and labeled with 2 μg/ml DAPI, (Molecular Probes, Cat D1306) and 1 μg/ml Cell Mask-Blue (Invitrogen, Cat. H32720). Plates were then imaged using the Operetta High Content Imaging System, Perkin Elmer, Waltham (DAPI and Cell Mask Blue, Ex 360-400, Em 410-480), and the RFP channels (Ex 520-550, Em 560-630) channels. Agents effecting ≥2-fold PD-L1 reduction in the RFP reporter without loss of ≥20% cell viability were candidate PD-L1 depletion agents.\nFlow cytometry: Mice were sacrificed by cervical dislocation after induction of deep isoflurane anesthesia. ID8agg tumors were collected and cells were stained as described (Derup et al., 2020) using LSR II hardware and analyzed by FACS Diva (BD Bioscience) or Flow Jo software (Flow Jo, LLC). Anti-mouse (clone 10F.9G2) and human (clone 29E.2A3) PD-L1 [both PE/Cy7, Cat #124314 (mouse) 329718 (human)] were matched with isotype control. Apoptosis assessment used Annexin V and propidium iodide (Thermo Scientific) per manufacturer instruction.\nWestern blotting and immunoprecipitation: To prepare whole cell lysates, cells were harvested and lysed in RIPA (radioimmunoprecipitation assay) buffer plus 1 mM phenylmethylsulphonyl fluoride and Halt protease/phosphatase inhibitor cocktail (Thermo Scientific) at 4° C. Protein concentrations were measured by BCA Protein Assay Kit (Thermo Scientific). Protein was run on precast 4-15% sodium dodecyl sulfate polyacrylamide gels (Bio-Rad), transferred to polyvinylidene fluoride membranes (GE Water and Process Technologies), and then blocked in 5% non-fat milk for 1 hour at room temperature. The membranes were then incubated with 1:1000 diluted primary antibodies against indicated proteins (Cell Signaling). Specific antibody binding was detected by chemiluminescence using Western Lightening Plus regent (Perkin Elmer). Cells for (co) immunoprecipitation experiments were seeded in 15-cm dishes and cultured as described, using 6 million cells per immunoprecipitation reaction. For protein ubiquitination, cells were lysed in denaturing buffer (50 mM Tris-HCl, 0.5 mM EDTA and 1% SDS) followed by heating at 95° C. for 10 minutes and then quenched with 9 volumes of quenching buffer (0.5% Triton X-100, 20 mM Tris-HCl (pH 8.0), 137 mM NaCl, 10% glycerol, 2 mM EDTA). Protease inhibitor cocktail (Roche) was added fresh to all buffers. Cell lysates were incubated on a rotator for 30 minutes at 4° C., and then centrifuged at 20,000 g for 15 minutes at 4° C. Supernatants were subsequently incubated with anti-PD-L1 antibody overnight and processed using Dynabeads Protein G for Immunoprecipitation (Thermo Fisher Scientific). The final eluate was processed and Western blotting was performed."}, "RT4 cells": {"tested_on": "RT4 cells", "test": "Chk1 inhibitor synthetic lethality with beta-lactam antibiotics, RT4 cells", "format": "cell-based, human", "experimental": "(§1) Additional experiments were performed, as follows. MB49 were plated at 2,000 cells/well in 96 well flat bottom plates and treated with PD-L1 depleting drugs, olaparib (2.5 μM), and combination for 96 hours. RT4 were plated at 2,000 cells/well in 96 well flat bottom plates and treated with cefepime, rabusertib (1 μM), praxasertib, or combination for 96 hours. ID8agg, 4T1, and B16 cells were plated on fibronectin at 500 cells/well and treated with cefepime, rabusertib, or combination for 96 hours. Normalized treatment combination to DDR inhibitor alone, and PD-L1 depleting drug to vehicle alone (DMSO) were evaluated."}, "ID8agg cells": {"tested_on": "ID8agg cells", "test": "Chk1 inhibitor synthetic lethality with ceftazidime, ID8agg cells", "format": "cell-based, mouse", "experimental": "as §1"}}, "data": [{"smiles": "CC(C)(O/N=C(\\C(=O)N[C@@H]1C(=O)N2C(C(=O)[O-])=C(C[n+]3ccccc3)CS[C@H]12)c1csc(N)n1)C(=O)O", "note": "[ceftazidime]", "values": [{"measurement": "expression of PD-L1 in cancer cells", "setting": "PD-L1", "value": "decreased expression of PD-L1"}, {"measurement": "PD-L1 dependence of synthetic lethality", "setting": "RT4 cells; FIG. 47B", "value": "PD-L1 dependent"}, {"measurement": "synthetic lethality with Chk1i", "setting": "RT4 cells; RT4 cells, Chk1i rabusertib", "value": "induce synthetic lethality"}, {"measurement": "synthetic lethality with Chk1i", "setting": "ID8agg cells", "value": "induce synthetic lethality"}]}]}
